Source: patent US20160169918A1, “Methods of Diagnosis and Treatment for Pulmonary Arterial Hypertension” (THE REGENTS OF THE UNIVERSITY OF CALIFORNIA, priority 2013, published 2016)
One block for each molecule: values may come before it.

Experiments:
[1] = molecular target: gastric inhibitory polypeptide receptor (human) (UniProt P48546); assay: cell-based or functional assay
[2] = tested on: GPR75; conditions: cited from earlier work
[3] = tested on: smooth muscle cell; conditions: after serum stimulation; cited from earlier work
[4] = molecular target: prostacyclin receptor (IPR) (Homo sapiens, UniProt P43119); assay: cAMP accumulation in response to receptor agonist (cAMP radioimmunoassay) in Ctrl-PASMCs; assay type: cell-based; conditions: agonist 10 μM, 10 min treatment
Experimental: (§1) Control-PASMCs, PAH-PASMCs or HEK 293 cells were seeded at 30,000 cells/well in a 24-well plate. […] 10 uM FSK (alone) was used as a positive control. After the incubations, the media was aspirated and 150 μL of 7.5% trichloroacetic acid (TCA) was added to each well.
(§2) Assay tubes were filled with 1 mL of 10 mM sodium acetate buffer (pH 4.75) and a standard curve was constructed by serial dilution of stock 5 μM cAMP (Millipore, Billerica, Mass.). An appropriate amount of sample was added to the assay tubes and the samples were acetylated by addition of 20 μL triethylamine (Sigma) and 10 μl acetic anhydride (Sigma). 100 μL of the sodium acetate buffer was added to each well of a 96-well filter plate to prepare the plate and then was removed by vacuum. 50 μL of diluted, acetylated sample was added to each well along with 25 μL diluted antibody [1:1000, 6 μL primary cAMP antibody (Millipore) in 6 mL γ-globulin buffer (100 mg human γ-globulin/100 mL 50 mM NaAc pH 4.75)] and 25 μL diluted ^125I radioactivity [16 acetylated adenosine 3′,5′-cyclic phosphoric acid, 2′-O-succinyl [^125I]-iodotyrosine methyl ester (PerkinElmer) in 3 mL γ-globulin buffer so that 0.001 mCi of ^125I could be added to each sample. The 96-well filter plate containing the sample was incubated overnight at 4° C. […]

[5] = tested on: Ctrl-PASMCs; assay: [3H]thymidine incorporation (DNA synthesis, proliferation) of PASMCs with GPCR agonists; assay type: cell-based, human
Experimental: GPCR agonists/antagonists/GPR75 antibody in the absence or presence of 200 μM IBMX and [^3H] thymidine (1 μCi/ml) were added to the cells for 24-48 hr. Following incubation, cells were washed with a large volume of cold phosphate buffer saline (PBS) and then twice with a large volume of cold 7.5% TCA. The precipitated material was dissolved with 0.5 M NaOH and combined with 3 mL of scintillation fluid (Ecoscint O, National Diagnostics) and radioactivity was determined using a liquid scintillation counter (Beckman Coulter LS 1801).

[6] = tested on: PAH-patients; conditions: chronic inhalation; n=8 PAH-patients; cited from earlier work
[7] = molecular target: T1, adenosine 2B receptor (A2BR) (Homo sapiens, UniProt P29275); assay: cAMP accumulation in response to receptor agonist (cAMP radioimmunoassay) in Ctrl-PASMCs; assay type: cell-based; conditions: agonist 1 μM, 10 min treatment
T1 sequence (P29275 1-332): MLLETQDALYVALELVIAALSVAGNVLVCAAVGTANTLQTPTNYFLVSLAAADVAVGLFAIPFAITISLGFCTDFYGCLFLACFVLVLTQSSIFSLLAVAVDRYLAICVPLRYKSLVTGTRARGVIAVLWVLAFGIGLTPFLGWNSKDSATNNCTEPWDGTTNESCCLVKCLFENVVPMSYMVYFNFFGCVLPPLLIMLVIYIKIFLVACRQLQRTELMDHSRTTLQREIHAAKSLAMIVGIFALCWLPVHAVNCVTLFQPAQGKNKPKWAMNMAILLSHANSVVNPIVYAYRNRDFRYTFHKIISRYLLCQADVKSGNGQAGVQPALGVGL
Experimental: as §1, §2

[8] = molecular target: T2, gastric inhibitory polypeptide receptor (GIPR) (Homo sapiens, UniProt P48546); assay: as above; conditions: agonist 1 μM, 10 min treatment
T2 sequence (P48546 22-466): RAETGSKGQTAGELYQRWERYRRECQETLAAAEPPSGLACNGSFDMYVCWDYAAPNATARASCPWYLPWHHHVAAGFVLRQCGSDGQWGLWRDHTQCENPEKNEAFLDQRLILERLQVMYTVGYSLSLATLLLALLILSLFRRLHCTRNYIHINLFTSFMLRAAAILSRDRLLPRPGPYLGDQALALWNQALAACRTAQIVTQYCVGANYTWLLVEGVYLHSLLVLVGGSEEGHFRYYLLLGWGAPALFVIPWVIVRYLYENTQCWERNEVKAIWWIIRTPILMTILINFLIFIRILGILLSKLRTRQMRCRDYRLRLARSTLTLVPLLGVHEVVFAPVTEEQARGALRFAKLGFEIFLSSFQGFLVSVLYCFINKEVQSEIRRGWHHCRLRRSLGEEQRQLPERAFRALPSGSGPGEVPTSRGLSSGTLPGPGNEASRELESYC
Experimental: as §1, §2

[9] = tested on: human PASMCs; conditions: cited from earlier work
[10] = molecular target: prostaglandin E2 receptor (EP2R) (Homo sapiens, UniProt P43116); assay: cAMP accumulation in response to receptor agonist (cAMP radioimmunoassay) in Ctrl-PASMCs; conditions: agonist 1 μM, 10 min treatment
Experimental: as §1, §2

[11] = tested on: Adult Sprague-Dawley rats; assay: monocrotaline-treated rat model, right ventricular hypertrophy (Fulton Index); conditions: MCT 60 mg/kg once intraperitoneally, 2 weeks, control rats 0.20
Experimental: Adult Sprague-Dawley rats (250-300 g, male) were injected once intraperitoneally with MCT (60 mg/kg) and sacrificed 2 weeks later. Right ventricular hypertrophy was assessed to determine the development of PAH. It was evaluated as the ratio of the weight of the right ventricle to that of the left ventricle plus the septum (Fulton Index). […] This model is commonly used and approved as a valid model of PAH.^42,43 All animals were cared for in compliance with the guiding principles and approved by the UCSD Institutional Animal Care and Use Committee.

[12] = molecular target: vasoactive intestinal peptide receptor 1 (human) (UniProt P32241); assay: cell-based or functional assay
[13] = molecular target: T3, oxytocin receptor (Homo sapiens, UniProt P30559); assay: forskolin-stimulated cAMP levels in Ctrl-PASMCs with oxytocin; assay type: cell-based; conditions: 0.1 nM-10 μM, 10 min, FIG. 4D
T3 construct: the oxytocin receptor is expressed on the membrane of Ctrl-PASMCs; endogenous in cells; host or cells: Ctrl-PASMCs (primary human pulmonary artery smooth muscle cells)
T3 sequence (P30559 1-389): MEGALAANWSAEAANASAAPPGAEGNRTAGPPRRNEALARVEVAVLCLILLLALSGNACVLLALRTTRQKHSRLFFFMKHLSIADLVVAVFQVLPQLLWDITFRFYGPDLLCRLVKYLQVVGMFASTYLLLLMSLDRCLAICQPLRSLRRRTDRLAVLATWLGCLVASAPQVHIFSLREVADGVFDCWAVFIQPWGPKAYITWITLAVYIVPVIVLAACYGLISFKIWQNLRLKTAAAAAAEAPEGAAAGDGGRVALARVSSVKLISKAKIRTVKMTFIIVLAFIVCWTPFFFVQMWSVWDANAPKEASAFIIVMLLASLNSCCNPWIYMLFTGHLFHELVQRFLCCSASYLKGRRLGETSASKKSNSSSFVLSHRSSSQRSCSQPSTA
Experimental: as §1, §2

[14] = oxytocin 0.2 units/kg; cited from earlier work
[15] = HEK293 cells overexpressing GPR75

Chain of vasoactive intestinal peptide receptor 1 (human) (P32241 31-457): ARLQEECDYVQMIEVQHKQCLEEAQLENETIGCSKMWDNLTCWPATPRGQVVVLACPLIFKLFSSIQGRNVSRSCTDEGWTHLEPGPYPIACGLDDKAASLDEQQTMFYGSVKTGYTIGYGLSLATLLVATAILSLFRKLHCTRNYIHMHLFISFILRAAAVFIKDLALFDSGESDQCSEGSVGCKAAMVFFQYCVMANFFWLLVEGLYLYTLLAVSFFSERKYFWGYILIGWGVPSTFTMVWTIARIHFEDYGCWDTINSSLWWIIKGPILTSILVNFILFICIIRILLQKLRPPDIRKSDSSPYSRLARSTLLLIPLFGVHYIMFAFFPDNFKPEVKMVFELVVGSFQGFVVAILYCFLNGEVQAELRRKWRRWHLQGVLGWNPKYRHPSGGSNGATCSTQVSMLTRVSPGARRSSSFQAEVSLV
Chain of prostacyclin receptor (IPR) (P43119 whole entry): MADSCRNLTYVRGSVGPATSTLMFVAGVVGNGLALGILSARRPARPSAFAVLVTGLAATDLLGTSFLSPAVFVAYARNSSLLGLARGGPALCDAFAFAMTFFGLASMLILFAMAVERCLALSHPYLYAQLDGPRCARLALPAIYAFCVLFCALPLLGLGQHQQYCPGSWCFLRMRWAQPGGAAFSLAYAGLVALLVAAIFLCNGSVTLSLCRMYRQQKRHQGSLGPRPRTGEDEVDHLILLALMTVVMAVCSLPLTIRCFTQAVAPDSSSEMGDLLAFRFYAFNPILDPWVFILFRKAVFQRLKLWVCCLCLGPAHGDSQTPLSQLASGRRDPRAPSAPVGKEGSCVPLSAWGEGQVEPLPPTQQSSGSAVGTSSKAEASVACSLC
Chain of prostaglandin E2 receptor (EP2R) (P43116 whole entry): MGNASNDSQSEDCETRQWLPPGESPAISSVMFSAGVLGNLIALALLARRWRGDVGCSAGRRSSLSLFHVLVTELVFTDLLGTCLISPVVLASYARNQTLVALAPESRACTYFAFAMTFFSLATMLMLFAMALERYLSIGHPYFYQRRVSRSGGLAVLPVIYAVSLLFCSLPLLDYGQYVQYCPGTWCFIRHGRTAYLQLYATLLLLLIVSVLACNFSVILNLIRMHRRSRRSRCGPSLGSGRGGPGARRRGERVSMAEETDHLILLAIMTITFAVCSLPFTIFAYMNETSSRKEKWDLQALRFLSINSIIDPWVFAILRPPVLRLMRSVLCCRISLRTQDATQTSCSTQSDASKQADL

cAMP accumulation (fmol cAMP/cell/10 min treatment with agonist) in Ctrl-PASMCs at 1 µM GIP (fmol cAMP/cell/10 min) [1]: 0.2
Molecule: GIP (from UniProt P09681 52-93) (peptide)

Molecule: COc1ccc2c(c1)CC[C@@H]1[C@@H]2CC[C@]2(C)[C@@H](NCCCCCCN3C(=O)C=CC3=O)CC[C@@H]12 [U73122]
RANTES-mediated increase in Ca2+ mobilization ([2]; GPR75-HEK293 cells, PLC inhibitor): block

Molecule: Nc1ncnc2c1nc(Br)n2[C@@H]1O[C@@H]2COP(=O)(O)O[C@H]2[C@H]1O [8Br-cAMP]
percentage of cells in the S phase of the cell cycle [3]: reduced

cAMP accumulation [4]: 0.4 fmol cAMP/cell/10 min
Molecule: CCCCC[C@H](O)/C=C/[C@@H]1[C@H]2C/C(=C/CCCC(=O)O)O[C@H]2C[C@H]1O [epoprostenol]

Molecule: Vasoactive Intestinal Peptide [VIP]
decrease of PASMC proliferation ([5]; 0.1 nM-10 μM VIP, FIG. 4C): roughly 50%
exercise capacity [6]: improve
hemodynamics [6]: improve

Molecule: Nc1nc(Nc2ccccc2)nc2c1ncn2[C@@H]1O[C@H](CO)[C@@H](O)[C@H]1O [CV1808]
cAMP accumulation [7]: 0.6 fmol cAMP/cell/10 min

cAMP accumulation [8]: 0.2 fmol cAMP/cell/10 min
Molecule: GIP: receptor agonist used for the gastric inhibitory polypeptide receptor (GIPR)

Molecule: Neuropeptide Y
proliferation of human PASMCs [9]: stimulates proliferation

cAMP accumulation [10]: 0.4 fmol cAMP/cell/10 min
Molecule: CCCC1([C@H](O)C/C=C/[C@H]2[C@H](O)CC(=O)[C@@H]2CCCCCCC(=O)OC)CCC1 [butaprost]

Molecule: C[C@H]1C(=O)O[C@@H]2CCN3CC=C(COC(=O)[C@](C)(O)[C@]1(C)O)[C@H]23 [MCT, Monocrotaline]
Fulton Index (weight of right ventricle / left ventricle plus septum) [11]: 0.34

cAMP accumulation (fmol cAMP/cell/10 min treatment with agonist) in Ctrl-PASMCs at 1 µM VIP (fmol cAMP/cell/10 min) [12]: 0.2
decrease in proliferation of PASMCs (0.1 nM-10 µM VIP) [12]: 50%
Molecule: vasoactive intestinal peptide (from UniProt P01282 125-152)

cAMP accumulation (forskolin-stimulated) [13]: decreased cAMP accumulation
Molecule: CC[C@H](C)[C@@H]1NC(=O)[C@H](Cc2ccc(O)cc2)NC(=O)[C@@H](N)CSSC[C@@H](C(=O)N2CCC[C@H]2C(=O)N[C@@H](CC(C)C)C(=O)NCC(N)=O)NC(=O)[C@H](CC(N)=O)NC(=O)[C@H](CCC(N)=O)NC1=O [oxytocin]
PASMC proliferation ([5]; 0.1 nM-10 μM, cells in serum free media over 24 hr, FIG. 4D): promoted PASMC proliferation
mean PAP [14]: increases
pulmonary vascular resistance (PVR) [14]: increases

B1: RANTES: Regulated upon Activation, Normal T-cell Expressed, and Secreted chemokine; proposed ligand for GPR75 (protein, UniProt P13501 24-91, looked up)
C-C motif chemokine 5: SPYSSDTTPCCFAYIARPLPRAHIKEYFYTSGKCSNPAVVFVTRKNRQVCANPEKKWVREYINSLEMS
Ca2+ mobilization [2, 15]: stimulation
inositol triphosphate (IP3) [2, 15]: increase
